# Source: patent publication US11555175B2, “Cell culture methods and media comprising N-acetylcysteine” (Medimmune, LLC, priority 2014, dated 2023)
# Columns and labels:
# Type in all cases: cell-based
# [1] = tested on: NS0 Cell Line 1 (expressing an anti-IL-9 antibody); test: Cell doubling time of NS0 Cell Line 1 during cell expansion with NAC-supplemented medium
# Description: (§1) To investigate the role of N-Acetylcysteine on thaw recovery, cell viability, cell growth and cell doubling time on subsequent passaging, the following methods were used. Three different NS0 cell lines cultured in one to three different Animal Protein Free (“APF”) media were investigated to study the effect of N-acetylcysteine (NAC) on cell growth at vial thaw and during routine cell expansion. One of the cell lines was a NS0 null host cell that had not been transformed to express a recombinant protein (NS0 Null Cell Line). The other two NS0 cell lines were engineered to express a therapeutic recombinant protein: NS0 Cell Line 1 (expressing an anti-IL-9 antibody) and NS0 Cell Line 2 (expressing BAK502G9, an anti-IL-13 antibody). NS0 Cell Line 1 was thawed and expanded in two different APF media (APF Medium 1 or APF Medium 2) supplemented with various concentrations of NAC ranging from 1.5 mM to 2.5 mM. NS0 Cell Line 2 was thawed and expanded in three different APF media (APF Medium 1, APF Medium 2 or a commercially available NS0 cell culture media (CD Hybridoma+cholesterol from Invitrogen/Gibco)) supplemented with NAC ranging from 0.5 mM to 2.5 mM, while the untransformed host cell line (NS0 Null Cell Line) was thawed in APF medium 2 supplemented with NAC ranging from 0.5 mM to 1.5 mM. NAC was obtained from Sigma and was either added to the medium directly or dissolved in water at 100 mM concentration before adding to the media at the appropriate concentration. All three media (APF Medium 1, APF Medium 2, and CD Hybridoma+cholesterol from Invitrogen/Gibco) supported growth of NS0 cells, as illustrated in FIGS. 1-12. APF Medium 1 and APF Medium 2 contain standard cell culture components including: amino acids, vitamins, lipids, sugar, small peptides, pH buffer, trace metals, inorganic salts, nucleotides, nucleotide precursors, surfactants, reducing agents, cholesterol, lipids and antioxidants.
# (§2) Viable cell densities during the first 3 to 4 days (i.e. exponential growth phase) at each passage were used to calculate population doubling times during both the first few days after the vial thaw while the cells were recovering from the thaw and during subsequent cell passages when the cells have fully recovered and reached a consistent doubling time from passage to passage.
# NS0 cells (i.e. NS0 Cell Line 1) expressing an anti-IL-9 monoclonal antibody were cultured in animal-protein free (APF) medium (i.e. APF media 1 or APF media 2). The cells used in the vial thaw studies described in Example 1 were split into the same media (APF media 1 or APF media 2 supplemented with various concentrations of N-acetylcysteine) and allowed to recover in subsequent passages until a consistent doubling time from passage to passage was achieved. Viable cell density during exponential growth phase after recovery was used to calculate average cell doubling time as described in Example 1.
# NS0 Null Cell Line [2] = test: Cell doubling time of NS0 Null Cell Line at vial thaw with NAC-supplemented medium; conditions: for cell doubling time at vial thaw: control medium 67.8 hours
# Description: as §1
# (§3) Prior to vial thaw, media were temperature and pH equilibrated for a minimum of 1 hour in a 6% CO2 incubator at 37° C. with agitation at 120 rpm on a shaker. Vials were thawed using a 37° C. water bath and the entire contents were transferred equilibrated media. A cell count using Beckman Vi-Cell (an image-based cell viability analyzer) was obtained to measure the viable cell density and viability.
# as §2
# NS0 cells (i.e. NS0 Null Cell Line) not transfected with a heterologous protein were in a frozen stock. Frozen NS0 Null Cell Line cells were thawed in animal-protein free (APF) medium (i.e. APF media 2) supplemented with various concentrations of N-acetylcysteine (NAC) and viable cell density during exponential growth phase was used to calculate average cell doubling time as described in Example 1.
# NS0 Null Cell Line [3] = test: Cell doubling time of NS0 Null Cell Line during cell expansion with NAC-supplemented medium; conditions: for Average Doubling Time: APF Medium 2, during expansion, 0.0 mM control 31.9
# Description: as §1, §2
# NS0 cells (i.e. NS0 Null Cell Line) not transfected with a heterologous protein were cultured in animal-protein free (APF) medium (i.e. APF media 2). The cells used in the vial thaw studies described in Example 3 were split into the same media (APF media 2 supplemented with various concentrations of N-acetylcysteine) and allowed to recover in subsequent passages until a consistent doubling time from passage to passage was achieved. Viable cell density during exponential growth phase after recovery was used to calculate average cell doubling time as described in Example 1.
# [4] = tested on: NS0 Cell Line 2 (expressing BAK502G9, an anti-IL-13 antibody); test: Cell doubling time of NS0 Cell Line 2 at vial thaw with NAC-supplemented medium
# Description: as §1, §3, §2
# NS0 cells (i.e. NS0 Cell Line 2) expressing a monoclonal antibody (i.e. BAK502G9, an anti-IL-13 antibody) were in a frozen stock. Frozen NS0 Cell Line 2 cells were thawed in animal-protein free (APF) medium (i.e. APF media 1, APF media 2 or CD Hybridoma medium (Gibco) supplemented with cholesterol (1× Invitrogen Cholesterol Lipid Concentrate)) supplemented with various concentrations of N-acetylcysteine (NAC) and viable cell density during exponential growth phase was used to calculate average cell doubling time as described in Example 1.
# [5] = tested on: NS0 Cell Line 1 (expressing an anti-IL-9 antibody); test: Cell doubling time of NS0 Cell Line 1 at vial thaw with NAC-supplemented medium; conditions: for average cell doubling time at vial thaw: control medium 57.6 hours; for cell doubling time at vial thaw: control medium 109.8 hours
# Description: as §1, §3, §2
# NS0 cells (i.e. NS0 Cell Line 1) expressing an anti-IL-9 monoclonal antibody were in a frozen stock. Frozen NS0 Cell Line 1 cells were thawed in animal-protein free (APF) medium (i.e. APF media 1 or APF media 2) supplemented with various concentrations of N-acetylcysteine (NAC) and viable cell density during exponential growth phase was used to calculate average cell doubling time as described above.
# [6] = tested on: NS0 Cell Line 2 (expressing BAK502G9, an anti-IL-13 antibody); test: Cell doubling time of NS0 Cell Line 2 during cell expansion with NAC-supplemented medium
# Description: as §1, §2
# NS0 cells (i.e. NS0 Cell Line 2) expressing a monoclonal antibody (i.e. BAK502G9, an anti-IL-13 antibody) were cultured in animal-protein free (APF) medium (i.e. APF media 1, APF media 2 or CD Hybridoma medium (Gibco) supplemented with cholesterol (1× Invitrogen Cholesterol Lipid Concentrate)). The cells used in the vial thaw studies described in Example 2 were split into the same media (APF media 1, APF media 2 or CD Hybridoma medium+cholesterol) supplemented with various concentrations of N-acetylcysteine and allowed to recover in subsequent passages until a consistent doubling time from passage to passage was achieved. Viable cell density during exponential growth phase after recovery was used to calculate average cell doubling time as described in Example 1.
# [7] = during expansion, about 1.5 mM to about 2.5 mM NAC, APF media 1 and 2
# [8] = vial thaw, 0.5 mM to 1.5 mM NAC, APF medium 2
# [9] = vial thaw, about 0.5 mM to about 2.5 mM NAC, three media, vs control medium
# [10] = vial thaw, about 1.5 mM to about 2.5 mM NAC, APF media 1 and 2, vs control medium
# [11] = during expansion, about 0.5 mM to about 2.5 mM NAC, three media
smiles,measurement,setting,value
"CC(=O)N[C@@H](CS)C(=O)O [NAC, (2R) -2-acetamido-3-sulfanylpropanoic acid]",Average Doubling Time,"[1]; APF Medium 1, during expansion, 1.5 mM NAC, 0.0 mM control 47.0",42.3 h
same,Average Doubling Time,"[1]; APF Medium 1, during expansion, 2.0 mM NAC, 0.0 mM control 47.0",46.1 h
same,Average Doubling Time,"[1]; APF Medium 1, during expansion, 2.5 mM NAC, 0.0 mM control 47.0",63.6 h
same,Average Doubling Time,"[1]; APF Medium 2, during expansion, 1.5 mM NAC, 0.0 mM control 44.3",34.8 h
same,Average Doubling Time,"[1]; APF Medium 2, during expansion, 2.0 mM NAC, 0.0 mM control 44.3",34.6 h
same,Average Doubling Time,"[1]; APF Medium 2, during expansion, 2.5 mM NAC, 0.0 mM control 44.3",34.8 h
same,cell growth,[1]; [7],increases
same,cell viability,[1]; [7],increases
same,cell doubling time at vial thaw,"NS0 Null Cell Line [2]; APF media 2, 0.5 mM NAC",36.8 h
same,cell doubling time at vial thaw,"NS0 Null Cell Line [2]; APF media 2, 1.0 mM NAC",38.4 h
same,cell doubling time at vial thaw,"NS0 Null Cell Line [2]; APF media 2, 1.5 mM NAC",57.9 h
same,cell growth,NS0 Null Cell Line [2]; [8],increased
same,cell viability,NS0 Null Cell Line [2]; [8],improved
same,Average Doubling Time,NS0 Null Cell Line [3]; 0.5 mM NAC,26.4 h
same,Average Doubling Time,NS0 Null Cell Line [3]; 1.0 mM NAC,26.4 h
same,Average Doubling Time,NS0 Null Cell Line [3]; 1.5 mM NAC,26.2 h
same,cell growth,"NS0 Null Cell Line [3]; during expansion, 0.5 mM to 1.5 mM NAC, APF medium 2",increased
same,cell viability,"NS0 Null Cell Line [3]; during expansion, about 0.5 mM to about 2.0 mM NAC, statement covers three NS0 cell lines in three media",increased
same,average cell doubling time at vial thaw,"[4]; APF media 1, 0.5 mM NAC, control medium 44.6 hours",39.6 h
same,average cell doubling time at vial thaw,"[4]; APF media 1, 1.0 mM NAC, control medium 44.6 hours",41.6 h
same,average cell doubling time at vial thaw,"[4]; APF media 1, 2.5 mM NAC, control medium 44.6 hours",37.5 h
same,average cell doubling time at vial thaw,"[4]; APF media 2, 0.5 mM NAC, control medium 77.0 hours",57.7 h
same,average cell doubling time at vial thaw,"[4]; APF media 2, 1.0 mM NAC, control medium 77.0 hours",37.0 h
same,average cell doubling time at vial thaw,"[4]; APF media 2, 2.0 mM NAC, control medium 77.0 hours",39.7 h
same,average cell doubling time at vial thaw,"[4]; CD Hybridoma medium (Gibco) + 1x Cholesterol Lipid Concentrate, 0.5 mM NAC, control medium 35.5 hours",34.7 h
same,average cell doubling time at vial thaw,"[4]; CD Hybridoma medium (Gibco) + 1x Cholesterol Lipid Concentrate, 1.0 mM NAC, control medium 35.5 hours",30.6 h
same,average cell doubling time at vial thaw,"[4]; CD Hybridoma medium (Gibco) + 1x Cholesterol Lipid Concentrate, 2.0 mM NAC, control medium 35.5 hours",30.9 h
same,cell growth,[4]; [9],increases
same,cell viability,[4]; [9],increases
same,average cell doubling time at vial thaw,"[5]; APF media 1, 1.5 mM NAC",55.6 h
same,average cell doubling time at vial thaw,"[5]; APF media 1, 2.0 mM NAC",48.4 h
same,average cell doubling time at vial thaw,"[5]; APF media 1, 2.5 mM NAC",53.9 h
same,cell doubling time at vial thaw,"[5]; APF media 2, 1.5 mM NAC",47.5 h
same,cell doubling time at vial thaw,"[5]; APF media 2, 2.0 mM NAC",56.9 h
same,cell doubling time at vial thaw,"[5]; APF media 2, 2.5 mM NAC",47.7 h
same,cell growth,[5]; [10],increases
same,cell viability,[5]; [10],increases
same,Average Doubling Time,"[6]; APF Medium 1, during expansion, 0.5 mM NAC, 0.0 mM control 41.7",35.4 h
same,Average Doubling Time,"[6]; APF Medium 1, during expansion, 1.0 mM NAC, 0.0 mM control 41.7",31.2 h
same,Average Doubling Time,"[6]; APF Medium 1, during expansion, 2.5 mM NAC, 0.0 mM control 41.7",31.2 h
same,Average Doubling Time,"[6]; APF Medium 2, during expansion, 0.5 mM NAC, 0.0 mM control 38.1",30.2 h
same,Average Doubling Time,"[6]; APF Medium 2, during expansion, 1.0 mM NAC, 0.0 mM control 38.1",28.8 h
same,Average Doubling Time,"[6]; APF Medium 2, during expansion, 2.0 mM NAC, 0.0 mM control 38.1",31.5 h
same,Average Doubling Time,"[6]; Invitrogen CD Hybridoma Medium supplemented with cholesterol, during expansion, 0.5 mM NAC, 0.0 mM control 40.7",39.7 h
same,Average Doubling Time,"[6]; Invitrogen CD Hybridoma Medium supplemented with cholesterol, during expansion, 1.0 mM NAC, 0.0 mM control 40.7",37.5 h
same,Average Doubling Time,"[6]; Invitrogen CD Hybridoma Medium supplemented with cholesterol, during expansion, 2.0 mM NAC, 0.0 mM control 40.7",35.7 h
same,cell growth,[6]; [11],increases
same,cell viability,[6]; [11],increases
